Measured values: patent EP0400805A1, “Cephalosporin compounds and their use” (Ishimaru, Toshiyasu, priority 1989, dated 1990)

Experiments:
Experiment in all cases: MIC by agar dilution method
Type in all cases: cell-based
Set-up in all cases: unit not given here
Salmonella typhi = test system: Salmonella typhi
Description: (§1) The following Table 1 show minimum inhibitory concentrations (MIC) against Gram-positive and Gram-negative bacteria of representative compounds of the invention. MIC was measured by agar dilution method.

Pseudomonas aerugenosa = test system: Pseudomonas aerugenosa
Description: as §1

Staph. epidermidis = test system: Staph. epidermidis
Description: as §1

Bacillus subtilis = test system: Bacillus subtilis
Description: as §1

[1] = test system: Pseudomonas aerugenosa GN
Description: as §1

Proteus mirabilis = test system: Proteus mirabilis
Description: as §1

Enterobacter cloacae = test system: Enterobacter cloacae
Description: as §1

Klebsiella pneumoniae = test system: Klebsiella pneumoniae
Description: as §1

Escherichia coli NIHJ = test system: Escherichia coli NIHJ
Description: as §1

Serratia marcescens = test system: Serratia marcescens
Description: as §1

Staph. aureus Smith = test system: Staph. aureus Smith
Description: as §1

Molecule	Minimum Inhibitor Concentration (MIC) (Salmonella typhi)	Minimum Inhibitor Concentration (MIC) (Pseudomonas aerugenosa)	Minimum Inhibitor Concentration (MIC) (Staph. epidermidis)	Minimum Inhibitor Concentration (MIC) (Bacillus subtilis)	Minimum Inhibitor Concentration (MIC) [1]	Minimum Inhibitor Concentration (MIC) (Proteus mirabilis)	Minimum Inhibitor Concentration (MIC) (Enterobacter cloacae)	Minimum Inhibitor Concentration (MIC) (Klebsiella pneumoniae)	Minimum Inhibitor Concentration (MIC) (Escherichia coli NIHJ)	Minimum Inhibitor Concentration (MIC) (Serratia marcescens)	Minimum Inhibitor Concentration (MIC) (Staph. aureus Smith)
Nc1nc(/C(=N/OCc2ccc(O)c(O)c2Cl)C(=O)NC2C(=O)N3C(C(=O)[O-])=C(CSc4cnns4)CS[C@H]23)cs1.[Na+] (stereo partly shown) [Example 2, Sodium 7-[2-(2-aminothiazol-4-yl)-2(Z)-(2-chloro-3,4-dihydroxybenzyloxyimino)acetamido]-3-(1,2,3-thiadiazol-5-yl)thiomethyl-3-cephem-4-carboxylate]	0.20	0.78	0.20	0.20	6.25	0.05	0.78	0.20	0.78	0.78	0.20
Nc1nc(/C(=N/OCc2cc(Cl)c(O)c(O)c2Cl)C(=O)NC2C(=O)N3C(C(=O)[O-])=C(CSc4cnns4)CS[C@H]23)cs1.[Na+] (stereo partly shown) [Example 1, Sodium 7-[2-(2-aminothiazol-4-yl)-2(Z)-(2,5-dichloro-3,4-dihydroxybenzyloxyimino)acetamido]-3-(1,2,3-thiadiazol-5-yl)thiomethyl-3-cephem-4-carboxylate]	0.10	0.39	0.20	0.78	0.39	0.05	0.20	0.05	0.05	0.10	0.10
Nc1nc(/C(=N/OCc2cc(O)c(O)c(F)c2)C(=O)NC2C(=O)N3C(C(=O)O)=C(CSc4cnns4)CSC23)cs1 (stereo not shown) [Example 9, Sodium 7-[2-(2-aminothiazol-4-yl)-2(Z)-(5-fluoro-3,4-dihydroxybenzyloxyimino)acetamido]-3-(l,2,3-thiadiazol-5-yl)thiomethyl-3-cephem-4-carboxylate]	< 0.05	0.78	0.78	1.56	1.56	< 0.05	6.25	< 0.05	< 0.05	< 0.05	0.10
C[n+]1ccc(SCC2=C(C(=O)[O-])N3C(=O)C(NC(=O)/C(=N\OCc4cc(Cl)c(O)c(O)c4Cl)c4csc(N)n4)C3SC2)cc1 (stereo not shown) [Example 3, 7-[2-(2-aminothiazol-4-yl)-2(Z)-(2,5-dichloro-3,4-di hydroxybenzyloxyimino)acetamido]-3-(N-methylpyridin-4-yl)thiomethyl-3-cephem-4-carboxylic acid]	0.39	0.39	0.39	0.78	0.39	0.025	0.20	0.05	0.05	0.05	0.39
Sodium 7-[2-(2-aminothiazol-4-yl)-2(Z)-(3,4-dihydroxybenzyloxyimino)acetamido]-3-(5-methyl-2-tetrazol-2-yl)thiomethyl-3-cephem-4-carboxylate [Example 6]	0.20	0.78	1.56	0.39	1.56	0.10	1.56	0.10	0.05	0.20	0.10
Nc1nc(/C(=N/OCc2ccc(O)c(O)c2)C(=O)NC2C(=O)N3C(C(=O)[O-])=C(CSc4cnns4)CS[C@H]23)cs1.[Na+] (stereo partly shown) [Example 5, Sodium 7-[2-(2-aminothiazol-4-yl)-2(Z)-(3,4-dihydroxybenzyloxyimino)acetamido]-3-(1,2,3-thiadiazol-5-yl)thiomethyl-3-cephem-4-carboxylate]	0.10	0.39	0.78	0.39	0.78	0.10	0.78	0.05	0.05	0.10	0.10
Nc1nc(/C(=N/OCc2cc(O)c(O)c(Cl)c2)C(=O)NC2C(=O)N3C(C(=O)O)=C(CSc4cnns4)CSC23)cs1 (stereo not shown) [Example 7]	< 0.05	0.78	0.78	1.56	1.56	< 0.05	6.25	< 0.05	< 0.05	< 0.05	0.01
Nc1nc(/C(=N/OCc2cc(F)c(O)c(O)c2F)C(=O)NC2C(=O)N3C(C(=O)[O-])=C(CSc4cnns4)CS[C@H]23)cs1.[Na+] (stereo partly shown) [Example 8, Sodium 7-[2-(2-aminothiazol-4-yl)-2(Z)-(2,5-difluoro-3,4-dihydroxybenzyloxyimino)acetamido]-3-(1,2,3-thiadiazol-5-yl)thiomethyl-3-cephem-4-carboxylate]	< 0.05	0.39	0.20	1.56	0.78	< 0.05	3.13	< 0.05	< 0.05	< 0.05	0.10
